These are literature values, as cited in patent publication US20170326066A1, “METHOD OF TREATING HYPERTENSION” (Ezra Pharma LLC, priority 2016, published 2017).

As a reminder, the Tmax is the time at which the peak concentration occurs.

As to `CCCCC(=O)N(Cc1ccc(-c2ccccc2-c2nnn[nH]2)cc1)[C@H](C(=O)O)C(C)C` [valsartan], the “peak plasma concentration reduced to” value (by 12 hours) is “approximately 65%”. Besides, the “time by which plasma levels reach very low level” value (following Cmax) was 10 to 12 h. Moreover, the half-life entry (in vivo) is reported as “about 6 hours”. For the same compound, where the note is “oral administration”, the time to peak (Tmax) is 2 to 4 h, the absolute bioavailability result is recorded as “about 25%” and the “absolute bioavailability (range)” value was 10-35%.
